These results are taken from ChEMBL document CHEMBL1201862, “PubChem BioAssay data set” (2004).

The source made the active and inactive calls.

In one experiment the target is Melanocortin receptor 4 (Homo sapiens, UniProt P32245). Kind of experiment: inhibitors of MC4R cAMP signaling – cell-based, TR-FRET, biased antagonists, dose response (AID 602298).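 Note: antagonist potency against agonist-stimulated cAMP production.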 It counts as functional.
Experiment [1] in a line: cAMP pathway inhibition in counterscreen cell line – TR-FRET cAMP detection, counter-screen for MC4R biased antagonist project, dose response (AID 602305).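 Note: U2OS cells stimulated with forskolin near its EC80 as the cAMP inducer; potency is for inhibition of forskolin-stimulated cAMP signaling.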 The experiment is classed as functional, cell-based.
Experiment [2] concerns the target T1, DNA dC->dU-editing enzyme APOBEC-3G (Homo sapiens, UniProt Q9HC16). The experiment is described as follows: inhibition of APOBEC3G ssDNA deamination – biochemical, fluorescence, single-stranded DNA substrate, SAR follow-up (AID 602136). The experiment is classed as functional. Conditions: read-out: IC50_Mean.
Experiment [3] addresses T2, DNA dC->dU-editing enzyme APOBEC-3A (Homo sapiens, UniProt P31941). The experiment is described as follows: SAR analysis of small molecule inhibitors of APOBEC3A DNA Deaminase via a fluorescence-based single-stranded DNA deaminase assay. It counts as functional. Conditions: read-out: IC50_Mean.
The target in experiment [4] is T1, DNA dC->dU-editing enzyme APOBEC-3G. Kind of experiment: SAR analysis of small molecule inhibitors of APOBEC3G DNA Deaminase via a fluorescence-based single-stranded DNA deaminase assay - Set 2. It counts as functional. Conditions: read-out: IC50_Mean.
Experiment [5] has the same target. The experiment is described as follows: Dose Response confirmation of small molecule APOBEC3G DNA Deaminase Inhibitors via a fluorescence-based single-stranded DNA deaminase assay. [Related pubchem assays (depositor defined):AID493012, AID493028]. The experiment is classed as functional.
Experiment [6] addresses T2, DNA dC->dU-editing enzyme APOBEC-3A. The experiment is described as follows: A3A deaminase inhibition for selectivity – biochemical, dose response (AID 504722). The experiment is classed as functional.
For experiment [7] the target is unchanged. Kind of experiment: SAR analysis of small molecule inhibitors of APOBEC3A DNA Deaminase via a fluorescence-based single-stranded DNA deaminase assay - Set 2. The experiment is classed as functional. Conditions: read-out: IC50_Mean.
The target of experiment [8] is Multidrug resistance protein CDR2 (Candida albicans (strain SC5314 / ATCC MYA-2876) (Yeast), UniProt P78595). Kind of experiment: inhibition of Nile Red efflux via Candida CDR2 – S. cerevisiae AD1-8u, singleplex, Cherry Pick1 hits, dose response (AID 588604). It counts as functional.
The target in experiment [9] is Benomyl/methotrexate resistance protein (Candida albicans, UniProt P28873). Kind of experiment: Candida albicans Mdr1 pump inhibition curves – singleplex, Cherry Pick1 hits, dose response (AID 588608). The experiment is classed as functional.
For the next experiment, the target named is ORF 73 (Human herpesvirus 8, UniProt O40947). The experiment is described as follows: KSHV LANA DNA-binding disruption – biochemical, fluorescence polarization, cherry-picked samples, dose response (AID 504725).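 Note: fluorescence polarization of a labeled DNA duplex reporting LANA DNA binding; potency is for inhibitors that block LANA binding to the DNA.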 Details: species or system Human gammaherpesvirus 8.
The target of the next experiment is Aurora kinase B (Homo sapiens, UniProt Q96GD4). It counts as functional.
The target in experiment [10] is Calcium/calmodulin-dependent protein kinase type II subunit delta (Homo sapiens, UniProt Q13557). The experiment is classed as functional.
Experiment [11] addresses Calcium/calmodulin-dependent protein kinase type II subunit gamma (Homo sapiens, UniProt Q13555). It counts as functional.
In experiment [12] the target is Calcium/calmodulin-dependent protein kinase type II subunit beta (Homo sapiens, UniProt Q13554). The experiment is classed as functional.
The target in experiment [13] is Receptor-type tyrosine-protein kinase FLT3 (Homo sapiens, UniProt P36888). The experiment is classed as functional.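 Note: FLT3 was tested as one member of a kinome-wide kinase panel.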
Experiment [14] addresses Serine/threonine-protein kinase TAO1 (Homo sapiens, UniProt Q7L7X3). It counts as functional.
Experiment [15] deals with Mitogen-activated protein kinase 13 (Homo sapiens, UniProt O15264). The experiment is classed as functional.
The target of experiment [16] is Insulin-like growth factor 1 receptor (Homo sapiens, UniProt P08069). The experiment is described as follows: Navigating the Kinome. Panel member name: IGF1R. It counts as functional.
Experiment [17] has as its target Tyrosine-protein kinase Fyn (Homo sapiens, UniProt P06241). The experiment is classed as functional.
The target in experiment [18] is MAP/microtubule affinity-regulating kinase 3 (Homo sapiens, UniProt P27448). The experiment is classed as functional.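 Note: MARK3 affinity measured as one member of a kinome panel.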
Experiment [19] has as its target Dual specificity tyrosine-phosphorylation-regulated kinase 1A (Homo sapiens, UniProt Q13627). It counts as functional.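 Note: measured against DYRK1A as one member of a broad kinome profiling panel.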
The target of experiment [20] is Tyrosine-protein kinase Lyn (Homo sapiens, UniProt P07948). The experiment is classed as functional.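 Note: lyn as one member of a kinase panel.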
Experiment [21] concerns the target Vascular endothelial growth factor receptor 2 (Homo sapiens, UniProt P35968). The experiment is classed as functional.
For experiment [22], the target named is Tyrosine-protein kinase JAK2 (Homo sapiens, UniProt O60674). The experiment is classed as functional.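 Note: JAK2 tested as one member of a kinase panel.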
The target of another experiment is Aurora kinase A (Homo sapiens, UniProt O14965). It counts as functional.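 Note: value from the Navigating the Kinome kinase panel profiling, panel entry STK6.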
Experiment [23] deals with Serine/threonine-protein kinase PAK 4 (Homo sapiens, UniProt O96013). It counts as functional.
The target of experiment [24] is Fibroblast growth factor receptor 3 (Homo sapiens, UniProt P22607). The experiment is classed as functional.
The target of experiment [25] is Tyrosine-protein kinase ABL1 (Homo sapiens, UniProt P00519). It counts as functional.
Experiment [26] concerns the target Serine/threonine-protein kinase D2 (Homo sapiens, UniProt Q9BZL6). It counts as functional.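 Note: measured against PRKD2 as one member of a kinome-wide kinase profiling panel.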
Experiment [27] concerns the target Tyrosine-protein kinase Blk (Homo sapiens, UniProt P51451). The experiment is classed as functional.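 Note: obtained as one member of a kinome-wide kinase assay panel.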
Experiment [28] concerns the target Receptor tyrosine-protein kinase erbB-2 (Homo sapiens, UniProt P04626). Kind of experiment: Navigating the Kinome. Panel member name: ERBB2. The experiment is classed as functional.
Experiment [29] has as its target Dual specificity tyrosine-phosphorylation-regulated kinase 1B (Homo sapiens, UniProt Q9Y463). Kind of experiment: Navigating the Kinome. Panel member name: DYRK1B. The experiment is classed as functional.
For experiment [30], the target named is Tyrosine-protein kinase JAK3 (Homo sapiens, UniProt P52333). The experiment is classed as functional.
Experiment [31] deals with Tyrosine-protein kinase ITK/TSK (Homo sapiens, UniProt Q08881). It counts as functional.
Experiment [32] addresses Leucine-rich repeat serine/threonine-protein kinase 2 (Homo sapiens, UniProt Q5S007). It counts as functional.
The target in experiment [33] is Vascular endothelial growth factor receptor 1 (Homo sapiens, UniProt P17948). The experiment is classed as functional.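 Note: measured within a kinome-wide profiling panel, FLT1 as the panel member.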
The target of experiment [34] is Serine/threonine-protein kinase pim-2 (Homo sapiens, UniProt Q9P1W9). It counts as functional.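 Note: value comes from a broad kinase panel profiling study in which PIM2 was one of the panel members.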
The next experiment concerns the target Activin receptor type-1 (Homo sapiens, UniProt Q04771). The experiment is described as follows: Navigating the Kinome. Panel member name: ACVR1. The experiment is classed as functional.
Experiment [35] addresses Cyclin-dependent kinase 1 (Homo sapiens, UniProt P06493). It counts as functional.
In experiment [36] the target is Proto-oncogene tyrosine-protein kinase ROS (Homo sapiens, UniProt P08922). The experiment is classed as functional.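 Note: ROS1 tested as one member of a kinome-wide kinase panel.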
The target in experiment [37] is cAMP-dependent protein kinase catalytic subunit alpha (Homo sapiens, UniProt P17612). It counts as functional.
In experiment [38] the target is Mitogen-activated protein kinase 1 (Homo sapiens, UniProt P28482). It counts as functional.
Experiment [39] concerns the target Dual specificity protein kinase CLK4 (Homo sapiens, UniProt Q9HAZ1). It counts as functional.

T1 sequence (Q9HC16 whole entry): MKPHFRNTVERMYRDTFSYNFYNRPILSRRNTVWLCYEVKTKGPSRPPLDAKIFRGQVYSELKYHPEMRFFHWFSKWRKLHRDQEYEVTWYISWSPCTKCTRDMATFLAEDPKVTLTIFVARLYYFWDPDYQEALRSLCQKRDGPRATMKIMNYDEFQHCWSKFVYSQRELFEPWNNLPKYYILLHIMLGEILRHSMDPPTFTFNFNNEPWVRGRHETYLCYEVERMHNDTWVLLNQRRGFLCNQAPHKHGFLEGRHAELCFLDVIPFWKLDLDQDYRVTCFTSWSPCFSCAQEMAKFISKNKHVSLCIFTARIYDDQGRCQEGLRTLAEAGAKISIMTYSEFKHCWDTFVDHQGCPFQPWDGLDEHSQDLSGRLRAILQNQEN
Leucine-rich repeat serine/threonine-protein kinase 2, sequence (Q5S007 whole entry): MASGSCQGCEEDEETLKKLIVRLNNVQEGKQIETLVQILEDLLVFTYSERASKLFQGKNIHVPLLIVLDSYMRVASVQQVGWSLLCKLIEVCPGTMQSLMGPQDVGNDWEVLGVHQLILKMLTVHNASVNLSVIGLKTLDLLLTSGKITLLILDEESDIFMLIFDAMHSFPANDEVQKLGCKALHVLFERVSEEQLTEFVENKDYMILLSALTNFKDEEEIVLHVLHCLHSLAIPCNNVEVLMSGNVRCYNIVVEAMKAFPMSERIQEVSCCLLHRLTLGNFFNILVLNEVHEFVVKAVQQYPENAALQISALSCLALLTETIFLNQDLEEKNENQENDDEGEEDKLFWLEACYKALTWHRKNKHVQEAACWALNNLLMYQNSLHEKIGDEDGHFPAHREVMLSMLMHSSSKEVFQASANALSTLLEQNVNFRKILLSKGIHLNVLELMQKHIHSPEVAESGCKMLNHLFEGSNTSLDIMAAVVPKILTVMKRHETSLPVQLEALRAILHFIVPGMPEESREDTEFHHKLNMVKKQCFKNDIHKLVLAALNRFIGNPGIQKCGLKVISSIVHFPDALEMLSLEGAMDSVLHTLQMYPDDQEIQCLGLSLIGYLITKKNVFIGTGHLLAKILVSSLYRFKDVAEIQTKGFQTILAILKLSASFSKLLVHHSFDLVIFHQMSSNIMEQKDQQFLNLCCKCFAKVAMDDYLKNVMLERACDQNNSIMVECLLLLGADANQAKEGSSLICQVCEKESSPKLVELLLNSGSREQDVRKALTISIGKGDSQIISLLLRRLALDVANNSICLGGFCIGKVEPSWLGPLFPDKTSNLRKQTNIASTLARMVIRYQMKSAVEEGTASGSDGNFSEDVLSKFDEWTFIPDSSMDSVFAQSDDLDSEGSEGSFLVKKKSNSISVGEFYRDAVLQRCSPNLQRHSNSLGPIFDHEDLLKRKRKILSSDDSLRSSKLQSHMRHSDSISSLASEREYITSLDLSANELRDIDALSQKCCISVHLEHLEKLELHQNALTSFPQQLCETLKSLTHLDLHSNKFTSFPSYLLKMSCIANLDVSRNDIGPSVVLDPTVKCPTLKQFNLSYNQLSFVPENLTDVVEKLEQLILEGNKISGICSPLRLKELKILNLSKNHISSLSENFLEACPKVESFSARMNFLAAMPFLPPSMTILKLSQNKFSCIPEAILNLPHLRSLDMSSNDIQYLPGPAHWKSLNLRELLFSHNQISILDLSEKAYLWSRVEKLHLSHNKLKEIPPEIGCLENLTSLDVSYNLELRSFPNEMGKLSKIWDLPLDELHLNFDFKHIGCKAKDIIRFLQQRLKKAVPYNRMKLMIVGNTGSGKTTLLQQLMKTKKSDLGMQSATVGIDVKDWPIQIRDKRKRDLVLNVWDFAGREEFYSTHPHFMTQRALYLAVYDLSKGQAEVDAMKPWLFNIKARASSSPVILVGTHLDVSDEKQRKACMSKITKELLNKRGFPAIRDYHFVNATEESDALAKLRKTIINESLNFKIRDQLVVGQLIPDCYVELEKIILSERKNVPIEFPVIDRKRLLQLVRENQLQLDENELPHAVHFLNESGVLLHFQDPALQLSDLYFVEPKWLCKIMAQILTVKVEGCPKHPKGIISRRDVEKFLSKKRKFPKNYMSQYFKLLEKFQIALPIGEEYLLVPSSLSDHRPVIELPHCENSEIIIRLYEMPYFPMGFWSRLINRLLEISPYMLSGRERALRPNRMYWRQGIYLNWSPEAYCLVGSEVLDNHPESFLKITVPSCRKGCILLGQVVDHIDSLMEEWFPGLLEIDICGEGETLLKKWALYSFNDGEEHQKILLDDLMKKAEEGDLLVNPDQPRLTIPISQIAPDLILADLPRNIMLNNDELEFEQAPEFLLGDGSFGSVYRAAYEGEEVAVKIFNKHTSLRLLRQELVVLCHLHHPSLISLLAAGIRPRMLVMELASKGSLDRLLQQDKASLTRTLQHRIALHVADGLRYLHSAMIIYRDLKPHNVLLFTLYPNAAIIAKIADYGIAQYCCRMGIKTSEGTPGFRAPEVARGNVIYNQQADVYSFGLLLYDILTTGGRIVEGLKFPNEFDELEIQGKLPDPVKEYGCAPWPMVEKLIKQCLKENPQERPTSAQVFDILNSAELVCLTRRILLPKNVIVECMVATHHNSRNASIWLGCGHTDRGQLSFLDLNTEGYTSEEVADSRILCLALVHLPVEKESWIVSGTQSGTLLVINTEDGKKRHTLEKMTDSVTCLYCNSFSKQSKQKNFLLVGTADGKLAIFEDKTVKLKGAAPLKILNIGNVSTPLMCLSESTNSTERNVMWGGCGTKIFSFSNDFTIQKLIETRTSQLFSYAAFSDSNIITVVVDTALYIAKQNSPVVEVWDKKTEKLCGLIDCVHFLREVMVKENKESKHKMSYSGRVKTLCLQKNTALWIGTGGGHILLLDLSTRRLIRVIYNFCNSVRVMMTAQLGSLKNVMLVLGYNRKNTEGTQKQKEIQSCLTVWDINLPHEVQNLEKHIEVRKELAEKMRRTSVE
T2 sequence (P31941 whole entry): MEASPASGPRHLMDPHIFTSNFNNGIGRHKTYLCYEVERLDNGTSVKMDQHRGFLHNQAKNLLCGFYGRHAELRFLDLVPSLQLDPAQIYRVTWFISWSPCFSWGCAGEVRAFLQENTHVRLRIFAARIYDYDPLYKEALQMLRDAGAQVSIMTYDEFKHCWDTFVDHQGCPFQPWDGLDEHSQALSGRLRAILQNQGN
Mitogen-activated protein kinase 13, sequence (O15264 whole entry): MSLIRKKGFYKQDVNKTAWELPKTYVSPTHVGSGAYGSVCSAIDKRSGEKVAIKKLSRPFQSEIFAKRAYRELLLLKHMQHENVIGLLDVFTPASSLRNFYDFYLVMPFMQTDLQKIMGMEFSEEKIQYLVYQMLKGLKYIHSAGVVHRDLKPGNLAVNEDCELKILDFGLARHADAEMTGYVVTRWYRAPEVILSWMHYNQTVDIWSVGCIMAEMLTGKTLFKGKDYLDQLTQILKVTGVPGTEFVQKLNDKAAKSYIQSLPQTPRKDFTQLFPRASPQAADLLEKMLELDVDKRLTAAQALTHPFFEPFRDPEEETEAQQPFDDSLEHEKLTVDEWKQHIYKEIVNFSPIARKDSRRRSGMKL
Aurora kinase B, sequence (Q96GD4 whole entry): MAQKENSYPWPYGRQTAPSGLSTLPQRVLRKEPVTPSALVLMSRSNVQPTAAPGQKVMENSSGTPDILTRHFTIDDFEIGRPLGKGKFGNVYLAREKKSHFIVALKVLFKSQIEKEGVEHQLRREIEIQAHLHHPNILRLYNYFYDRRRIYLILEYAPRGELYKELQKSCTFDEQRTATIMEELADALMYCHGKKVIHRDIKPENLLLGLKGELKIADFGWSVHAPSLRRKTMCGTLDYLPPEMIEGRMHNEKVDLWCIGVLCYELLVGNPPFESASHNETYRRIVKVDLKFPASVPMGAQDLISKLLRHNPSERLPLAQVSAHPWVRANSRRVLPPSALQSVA
Serine/threonine-protein kinase D2, sequence (Q9BZL6 whole entry): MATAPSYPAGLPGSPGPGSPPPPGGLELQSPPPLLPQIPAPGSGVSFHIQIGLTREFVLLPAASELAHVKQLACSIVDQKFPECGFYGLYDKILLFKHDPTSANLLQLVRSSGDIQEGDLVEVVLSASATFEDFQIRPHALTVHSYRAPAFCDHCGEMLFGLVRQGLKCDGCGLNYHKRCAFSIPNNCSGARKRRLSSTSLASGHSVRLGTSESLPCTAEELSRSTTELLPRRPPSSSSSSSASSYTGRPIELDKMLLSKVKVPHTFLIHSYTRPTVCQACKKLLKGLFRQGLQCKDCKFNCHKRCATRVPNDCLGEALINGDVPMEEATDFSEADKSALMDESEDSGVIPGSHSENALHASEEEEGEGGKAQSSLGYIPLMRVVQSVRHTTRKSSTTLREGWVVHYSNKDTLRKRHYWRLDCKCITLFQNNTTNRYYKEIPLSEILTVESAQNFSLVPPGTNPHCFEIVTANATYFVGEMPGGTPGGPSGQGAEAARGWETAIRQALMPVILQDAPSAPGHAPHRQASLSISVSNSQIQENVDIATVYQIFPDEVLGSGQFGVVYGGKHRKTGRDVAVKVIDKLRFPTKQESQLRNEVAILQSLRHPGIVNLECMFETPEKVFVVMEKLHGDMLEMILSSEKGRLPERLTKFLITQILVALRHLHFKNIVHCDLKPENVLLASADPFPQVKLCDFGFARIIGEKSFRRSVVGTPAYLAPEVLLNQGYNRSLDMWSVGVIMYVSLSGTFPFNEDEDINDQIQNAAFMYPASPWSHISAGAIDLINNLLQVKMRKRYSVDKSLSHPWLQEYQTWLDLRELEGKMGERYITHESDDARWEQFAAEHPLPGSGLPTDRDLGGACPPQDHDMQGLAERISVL
Mitogen-activated protein kinase 1, sequence (P28482 whole entry): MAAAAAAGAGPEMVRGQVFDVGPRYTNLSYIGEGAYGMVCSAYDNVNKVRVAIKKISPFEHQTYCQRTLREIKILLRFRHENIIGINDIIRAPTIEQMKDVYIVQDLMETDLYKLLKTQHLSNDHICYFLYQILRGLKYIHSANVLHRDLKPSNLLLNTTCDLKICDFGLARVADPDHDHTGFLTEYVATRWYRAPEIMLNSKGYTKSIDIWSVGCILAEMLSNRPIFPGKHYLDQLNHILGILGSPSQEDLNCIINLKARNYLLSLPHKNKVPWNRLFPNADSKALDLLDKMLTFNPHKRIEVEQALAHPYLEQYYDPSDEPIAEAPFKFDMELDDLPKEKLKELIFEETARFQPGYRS

Regarding `Cc1ccc(CNC(=O)COC(=O)Cn2nc(C)c([N+](=O)[O-])c2C)cc1`, the values for the IC50 (at Melanocortin receptor 4; in experiment [1]) were 14400 nM (inactive) and > 64600 nM (inactive), respectively.
Turning to `S=c1[nH]nc2c3c4c(sc3ncn12)CCCC4`, the IC50 in experiment [2] is 3150 nM (active); in [3], > 99000 nM (inactive); in [4] it was > 99000 nM (inactive); in [5], 992 nM (active); in [6], > 100000 nM (inactive); in [7] it was > 99000 nM (inactive).
Take `O=C1/C(=C/c2ccco2)Oc2c1ccc(O)c2CN1CCCCC1`: the EC50 in experiment [8] is 18400 nM (active); in experiment [9], 9630 nM (active). For the same compound, the concentration at half-maximal activity (AC50) on ORF 73 was 14500 nM (active).
On to `CCCCOc1ccc(C(C)(C)CC)cc1S(=O)(=O)Nc1ccc(-c2csc3ncnc(N)c23)cc1`, for which the Ki is 6310 nM (active) at Aurora kinase B; 6310 nM (active) in [10]; 6310 nM (active) in experiment [11]; 3980 nM (active) in [12]; 2000 nM (active) in experiment [13]; 7940 nM (active) in experiment [14].
For `O=S(=O)(c1cccc2cnccc12)N1CCCNCC1` [FASUDIL], the Ki is > 7940 nM (inactive) in experiment [15]; > 1000 nM (inactive) in [16]; > 794 nM (inactive) in experiment [17]; > 5010 nM (inactive) in experiment [18]; > 1260 nM (inactive) in experiment [19]; > 1580 nM (inactive) in [20]. Also, the Ki is > 2000 nM (inactive) in experiment [21]; > 1580 nM (inactive) in experiment [22]; > 1580 nM (inactive) on Aurora kinase A; > 5010 nM (inactive) in experiment [23]; > 2000 nM (inactive) in experiment [24]; > 631 nM (inactive) in experiment [25]. For the same compound, the Ki in experiment [26] is 1260 nM (active); in experiment [27], > 1580 nM (inactive); in experiment [28], > 1580 nM (inactive); in experiment [29], > 1260 nM (inactive); in experiment [30], > 1580 nM (inactive); in [31] it was > 1580 nM (inactive). Also, the inhibition constant (Ki) is 2000 nM (active) in experiment [32], > 398 nM (inactive) in [33], > 1580 nM (inactive) in [34] and > 3980 nM (inactive) at Activin receptor type-1. The negative-log Ki (pKi) in experiment [26] is given as 5.9; in [32], 5.7.
On to `CN(c1ncccc1CNc1nc(Nc2ccc3c(c2)CC(=O)N3)ncc1C(F)(F)F)S(C)(=O)=O` [PF-00562271], for which the Ki in [15] was > 7940 nM (inactive); in [35], 63.1 nM (active); in experiment [36], 12.6 nM (active); at Aurora kinase B, 63.1 nM (active); in experiment [37], 158 nM (active); in [38], 63.1 nM (active). The Ki was 63.1 nM (active) in experiment [39] and 158 nM (active) in [32].
